Results on ten compounds are retold here after patent publication US20260248780A1, “PHARMACEUTICAL COMPOSITIONS” (Birdie Biopharmaceuticals, Inc., priority 2017, published 2026).

What is called kinetic solubility is solubility judged after dilution from a stock solution rather than from solid. A word on the solubility: it is the dissolved amount per volume that the medium holds.

Where a name gives a salt, the structure may show the parent alone. Marks after values point to notes of the source that are not given here.

What all share (assay type): physicochemical
Series [1] can be described thus: Kinetic solubility in water and bio-relevant media (SGF, FaSSIF, FeSSIF) at RT. The settings on record: for solubility kinetic: water and bio-relevant media (SGF, FaSSIF, FeSSIF), water/bio-relevant media. On the procedure: After being centrifuged and separated using 0.45 μm Nylon filter, filtrates were collected for HPLC and pH test, and wet cakes for XRPD characterization. If clear solutions were obtained after 24 hours, accurate concentration and purity were measured for the solutions.

Series [2] can be described thus: Inter-conversion of crystal forms via storage and heating experiments.
The nature of series [3]: Solubility estimation in solvents at RT. The settings on record: organic solvent or mixture, thermodynamic from solid.
Protocol: Solubility of Type A was estimated in nine solvents at RT. […] Approximately 2 mg solids were added into a 3-mL glass vial.
Where [4] appears, read: water and bio-relevant media (SGF, FaSSIF, FeSSIF) at RT.

As to `CCOCc1nc2c(N)nc3ccccc3c2n1CC(C)(C)O` [Adipate Type A, resiquimod], the “FC: Solid form change” value in series [1] (FaSSIF, RT, 1 hr) is reported as “No”; in series [1] (Water, RT, 1 hr), “No”; in series [1] (Water, RT, 2 hrs), “No”; in series [1] (Water, RT, 4 hrs), “No”; in series [1] (Water, RT, 24 hrs), “No”. Moreover, the “S: Solubility” value was 4.3 mg/mL in series [1] (FaSSIF, RT, 1 hr); 4.5 mg/mL in series [1] (FaSSIF, RT, 2 hrs); 4.6 mg/mL in series [1] (FaSSIF, RT, 4 hrs); 4.5* mg/mL in series [1] (FaSSIF, RT, 24 hrs); 4.7 mg/mL in series [1] (SGF, RT, 1 hr); “C (C: Clear)” in series [1] (SGF, RT, 2 hrs). In addition, the “S: Solubility” value is reported as “C (C: Clear)” in series [1] (SGF, RT, 4 hrs); 4.7* mg/mL in series [1] (SGF, RT, 24 hrs); 2.8 mg/mL in series [1] (Water, RT, 1 hr); 2.7 mg/mL in series [1] (Water, RT, 2 hrs); 2.8 mg/mL in series [1] (Water, RT, 4 hrs); 2.7 mg/mL in series [1] (Water, RT, 24 hrs). In addition, the “Kinetic Solubility at RT” value in series [1] (bio-relevant media) was >4.2 (bio-relevant mg/mL; in series [1] (water), ~2.7 (water) mg/mL. Moreover, in series [1] (setting [4]), the “solubility compared with freebase Type A” value is listed as “improved or comparable solubility”.
As to `CCOCc1nc2c(N)nc3ccccc3c2n1CC(C)(C)O` [Di-HCl salt Type A, resiquimod], the “S: Solubility” value in series [1] (FaSSIF, RT, 1 hr) was “C (C: Clear)”; in series [1] (FaSSIF, RT, 2 hrs) it was “C (C: Clear)”; in series [1] (FaSSIF, RT, 4 hrs) it was “C (C: Clear)”; in series [1] (FaSSIF, RT, 24 hrs), 3.9* mg/mL; in series [1] (FeSSIF, RT, 1 hr), “C (C: Clear)”; in series [1] (FeSSIF, RT, 2 hrs), “C (C: Clear)”. The “S: Solubility” value in series [1] (FeSSIF, RT, 4 hrs) is “C (C: Clear)”; in series [1] (FeSSIF, RT, 24 hrs), 3.9* mg/mL; in series [1] (SGF, RT, 1 hr), “C (C: Clear)”; in series [1] (SGF, RT, 2 hrs), “C (C: Clear)”; in series [1] (SGF, RT, 4 hrs) it was “C (C: Clear)”; in series [1] (SGF, RT, 24 hrs) it was 3.9* mg/mL. In addition, the “solubility compared with freebase Type A” value in series [1] (setting [4]) was “improved or comparable solubility”.
On to `CCOCc1nc2c(N)nc3ccccc3c2n1CC(C)(C)O` [Malate Type A, resiquimod], for which the “S: Solubility” value in series [1] (FaSSIF, RT, 1 hr) was “C (C: Clear)”; in series [1] (FaSSIF, RT, 2 hrs), “C (C: Clear)”; in series [1] (FaSSIF, RT, 4 hrs), “C (C: Clear)”; in series [1] (FaSSIF, RT, 24 hrs) it was 3.7* mg/mL; in series [1] (SGF, RT, 1 hr) it was “C (C: Clear)”; in series [1] (SGF, RT, 2 hrs), “C (C: Clear)”. In addition, the “S: Solubility” value in series [1] (SGF, RT, 4 hrs) is given as “C (C: Clear)”; in series [1] (SGF, RT, 24 hrs) it was 4.3* mg/mL; in series [1] (Water, RT, 1 hr), “C (C: Clear)”; in series [1] (Water, RT, 2 hrs), “C (C: Clear)”; in series [1] (Water, RT, 4 hrs) it was “C (C: Clear)”; in series [1] (Water, RT, 24 hrs), 3.7* mg/mL. In addition, the “solubility compared with freebase Type A” value in series [1] (setting [4]) is given as “improved or comparable solubility”. Moreover, in series [1] (water), the kinetic solubility is greater than 3500 µg/mL.
Regarding `CCOCc1nc2c(N)nc3ccccc3c2n1CC(C)(C)O` [Maleate Type A, resiquimod], the “FC: Solid form change” value is on record as “No” in series [1] (FaSSIF, RT, 1 hr); “No” in series [1] (FaSSIF, RT, 2 hrs); “No” in series [1] (FaSSIF, RT, 4 hrs); “No” in series [1] (FaSSIF, RT, 24 hrs); “No” in series [1] (FeSSIF, RT, 1 hr); “No” in series [1] (FeSSIF, RT, 2 hrs). The “FC: Solid form change” value is reported as “No” in series [1] (FeSSIF, RT, 4 hrs); “No” in series [1] (FeSSIF, RT, 24 hrs); “No” in series [1] (SGF, RT, 1 hr); “No” in series [1] (SGF, RT, 2 hrs); “No” in series [1] (SGF, RT, 4 hrs); “No” in series [1] (SGF, RT, 24 hrs). In addition, the “FC: Solid form change” value was “No” in series [1] (Water, RT, 1 hr); “No” in series [1] (Water, RT, 2 hrs); “No” in series [1] (Water, RT, 4 hrs); “No” in series [1] (Water, RT, 24 hrs). For the same compound, the “S: Solubility” value in series [1] (FaSSIF, RT, 1 hr) was 2.2 mg/mL; in series [1] (FaSSIF, RT, 2 hrs), 2.3 mg/mL; in series [1] (FaSSIF, RT, 4 hrs), 2.4 mg/mL; in series [1] (FaSSIF, RT, 24 hrs), 2.3 mg/mL; in series [1] (SGF, RT, 1 hr) it was 1.4 mg/mL; in series [1] (SGF, RT, 2 hrs), 1.5 mg/mL. Also, the “S: Solubility” value in series [1] (SGF, RT, 4 hrs) is on record as 1.6 mg/mL; in series [1] (SGF, RT, 24 hrs), 1.5 mg/mL; in series [1] (Water, RT, 1 hr) it was 0.93 mg/mL; in series [1] (Water, RT, 2 hrs), 0.98 mg/mL; in series [1] (Water, RT, 4 hrs), 1.1 mg/mL; in series [1] (Water, RT, 24 hrs), 0.97 mg/mL. The “solubility compared with freebase Type A” value in series [1] (SGF, FaSSIF, and FeSSIF at RT) is “decreased solubility”. In addition, the “Kinetic Solubility at RT” value in series [1] (bio-relevant media) is recorded as ~1.5 (bio-relevant mg/mL; in series [1] (water) it was ~1.0 (water) mg/mL. For the same compound, the “form change after kinetic solubility evaluation” value in series [1] (remaining solids after suspended 24 hours, XRPD) was “no form change”.
`CCOCc1nc2c(N)nc3ccccc3c2n1CC(C)(C)O` [Mono-HCl salt Type A, resiquimod]: the solubility at 24 h in series [1] (FaSSIF, thermodynamic from solid, FaSSIF, RT, 24 hrs, read-out: S: Solubility) came out at 4500 µg/mL. Further, the “S: Solubility” value is reported as “C (C: Clear)” in series [1] (FeSSIF, RT, 1 hr); “C (C: Clear)” in series [1] (FeSSIF, RT, 2 hrs); “C (C: Clear)” in series [1] (FeSSIF, RT, 4 hrs); 4.6* mg/mL in series [1] (FeSSIF, RT, 24 hrs); “C (C: Clear)” in series [1] (SGF, RT, 1 hr); “C (C: Clear)” in series [1] (SGF, RT, 2 hrs). Further, the “S: Solubility” value is listed as “C (C: Clear)” in series [1] (SGF, RT, 4 hrs) and 4.7* mg/mL in series [1] (SGF, RT, 24 hrs). Further, the “solubility compared with freebase Type A” value in series [1] (setting [4]) is given as “improved or comparable solubility”. The kinetic solubility in series [1] (water, summary) is greater than 3800 µg/mL.
Consider `CCOCc1nc2c(N)nc3ccccc3c2n1CC(C)(C)O` [Phosphate Type A, resiquimod], for which the “S: Solubility” value was “C (C: Clear)” in series [1] (FaSSIF, RT, 1 hr); “C (C: Clear)” in series [1] (FaSSIF, RT, 2 hrs); “C (C: Clear)” in series [1] (FaSSIF, RT, 4 hrs); 4.3* mg/mL in series [1] (FaSSIF, RT, 24 hrs); “C (C: Clear)” in series [1] (SGF, RT, 1 hr); “C (C: Clear)” in series [1] (SGF, RT, 2 hrs). Further, the “S: Solubility” value is reported as “C (C: Clear)” in series [1] (SGF, RT, 4 hrs); 4.0* mg/mL in series [1] (SGF, RT, 24 hrs); “C (C: Clear)” in series [1] (Water, RT, 1 hr); “C (C: Clear)” in series [1] (Water, RT, 2 hrs); “C (C: Clear)” in series [1] (Water, RT, 4 hrs); 3.9* mg/mL in series [1] (Water, RT, 24 hrs). Moreover, in series [1] (setting [4]), the “solubility compared with freebase Type A” value is given as “improved or comparable solubility”.
Take `CCOCc1nc2c(N)nc3ccccc3c2n1CC(C)(C)O` [Sulfate Type A, resiquimod]: the “S: Solubility” value in series [1] (FaSSIF, RT, 1 hr) is “C (C: Clear)”; in series [1] (FaSSIF, RT, 2 hrs), “C (C: Clear)”; in series [1] (FaSSIF, RT, 4 hrs), “C (C: Clear)”; in series [1] (FaSSIF, RT, 24 hrs), 4.0* mg/mL; in series [1] (FeSSIF, RT, 1 hr), “C (C: Clear)”; in series [1] (SGF, RT, 1 hr), “C (C: Clear)”. Also, the “S: Solubility” value in series [1] (SGF, RT, 2 hrs) was “C (C: Clear)”; in series [1] (SGF, RT, 4 hrs), “C (C: Clear)”; in series [1] (SGF, RT, 24 hrs), 3.9* mg/mL; in series [1] (Water, RT, 1 hr), “C (C: Clear)”; in series [1] (Water, RT, 2 hrs), “C (C: Clear)”; in series [1] (Water, RT, 4 hrs), “C (C: Clear)”. The “S: Solubility” value in series [1] (Water, RT, 24 hrs) was 4.1* mg/mL. In series [1] (setting [4]), the “solubility compared with freebase Type A” value is given as “improved or comparable solubility”.
For `CCOCc1nc2c(N)nc3ccccc3c2n1CC(C)(C)O` [Type C, resiquimod], in series [2] (dried at ambient conditions overnight), the “form conversion on drying” value is “converted to Type A”.
Take `CCOCc1nc2c(N)nc3ccccc3c2n1CC(C)(C)O` [Type F, resiquimod]: in series [2] (storage at ambient conditions for 2 days), the “form conversion on storage” value is on record as “converted to Type A”.
Consider `CCOCc1nc2c(N)nc3ccccc3c2n1CC(C)(C)O` [sulfate Type A (807919-21-A)], for which the solubility in series [3] (ACN) was less than 2200 µg/mL; in series [3] (DMAc) it was greater than 40000 µg/mL; in series [3] (DMSO), greater than 44000 µg/mL; in series [3] (EtOAc) it was less than 2200 µg/mL; in series [3] (IPAc), less than 2000 µg/mL; in series [3] (MEK) it was less than 2000 µg/mL. Besides, the solubility was less than 2100 µg/mL in series [3] (MIBK); less than 2300 µg/mL in series [3] (MTBE); greater than 44000 µg/mL in series [3] (NMP); less than 2200 µg/mL in series [3] (anisole); less than 2100 µg/mL in series [3] (n-heptane); less than 2000 µg/mL in series [3] (toluene).
